Target: T1, PDGF-receptor beta enzyme comprising the tyrosine kinase domain (Homo sapiens, UniProt P09619)
T1 construct: from amino acid 545 to 1106 of GenBank Access NO: AAA36427
Test: Inhibition of PDGF-receptor kinase activity (cell-free, PLC1 peptide, 33P Flashplate)
Format: biochemical
Settings: PDGF-R kinase activity; for inhibition at 10 µM: compound at 10 uM, read-out: Percent Inhibition @ 10 uM; for IC50: read-out: IC50
Procedure, shortened: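 The IC50 is the inhibitor level halving kinase activity relative to inhibitor-free wells, measured as 33P captured on a streptavidin-bound biotin-PLC1 peptide. The reaction ran 60 min at 30 °C in pH 8 Tris buffer with 1 mM DTT, 5 μM ATP and the 545–1106 kinase-domain enzyme.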

T1 sequence (P09619 545-1106): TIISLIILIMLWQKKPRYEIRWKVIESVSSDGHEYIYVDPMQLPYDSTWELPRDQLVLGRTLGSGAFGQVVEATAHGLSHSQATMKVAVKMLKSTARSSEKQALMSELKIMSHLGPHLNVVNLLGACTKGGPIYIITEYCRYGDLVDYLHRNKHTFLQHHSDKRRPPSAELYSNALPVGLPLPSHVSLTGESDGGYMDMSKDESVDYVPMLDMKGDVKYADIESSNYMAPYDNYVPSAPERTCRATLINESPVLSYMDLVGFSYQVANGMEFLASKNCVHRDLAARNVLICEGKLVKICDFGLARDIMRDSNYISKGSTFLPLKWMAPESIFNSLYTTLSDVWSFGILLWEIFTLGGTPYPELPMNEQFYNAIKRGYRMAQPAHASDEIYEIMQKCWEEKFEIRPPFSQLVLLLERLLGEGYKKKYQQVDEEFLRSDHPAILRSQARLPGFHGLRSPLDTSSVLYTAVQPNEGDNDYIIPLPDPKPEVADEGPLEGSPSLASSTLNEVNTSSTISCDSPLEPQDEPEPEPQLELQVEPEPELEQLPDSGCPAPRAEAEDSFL

Row | inhibition at 10 µM [%] | IC50 [nM] | Structure (SMILES)
1 | 35 |  | COc1cc2c(cc1OC)C(C)c1c-2n[nH]c1Nc1cccc(Cl)c1 (stereo not shown) [Compound 257, (3-Chloro-phenyl)-(6,7-dimethoxy-4-methyl-2,4-dihydro-indeno[1,2-c]pyrazol-3-yl)-amine]
2 | 39 |  | COc1ccc(OC)c(Nc2[nH]nc3c2C(C)c2cc(OC)c(OC)cc2-3)c1 (stereo not shown) [Compound 258, (6,7-Dimethoxy-4-methyl-2,4-dihydro-indeno[1,2-c]pyrazol-3-yl)-(2,5-dimethoxy-phenyl)-amine]
3 | 93 | 2.04 | COc1cc2c(cc1OCC(O)CO)Cc1c-2n[nH]c1Nc1cccc(Cl)c1 (stereo not shown) [Compound 259]
4 | 86 | 85.2 | CCOc1cc2c(cc1OCC)-c1n[nH]c(NCc3ccccc3)c1C2 [Compound 264, Benzyl-(6,7-diethoxy-2,4-dihydro-indeno[1,2-c]pyrazol-3-yl)-amine]
5 | 54.5 | 6990 | COc1cc2c(cc1OC)-c1n[nH]c(NCc3cc(Cl)cc(Cl)c3)c1C2 [Compound 271, (3,5-Dichloro-benzyl)-(6,7-dimethoxy-2,4-dihydro-indeno[1,2-c]pyrazol-3-yl)-amine]
6 | 61 | 389 | COc1cc2c(cc1OC)-c1n[nH]c(NCc3cccc(C)c3)c1C2 [Compound 272, (6,7-Dimethoxy-2,4-dihydro-indeno[1,2-c]pyrazol-3-yl)-(3-methyl-benzyl)-amine]
7 | 77 | 1580 | COc1cc2c(cc1OC)-c1n[nH]c(NCc3ccc(C)c(Cl)c3)c1C2 [Compound 273, (3-Chloro-4-methyl-benzyl)-(6,7-dimethoxy-2,4-dihydro-indeno[1,2-c]pyrazol-3-yl)-amine]
8 | 57.5 | 2610 | COc1ccc(OC)c(CNc2[nH]nc3c2Cc2cc(OC)c(OC)cc2-3)c1 [Compound 274, (2,5-Dimethoxy-benzyl)-(6,7-dimethoxy-2,4-dihydro-indeno[1,2-c]pyrazol-3-yl)-amine]
9 | 80.5 | 501 | COc1cc2c(cc1OC)-c1n[nH]c(NCc3ccc(F)c(F)c3)c1C2 [Compound 275, (3,4-Difluoro-benzyl)-(6,7-dimethoxy-2,4-dihydro-indeno[1,2-c]pyrazol-3-yl)-amine]
10 | 11 | 287 | COc1cc2c(cc1OC)-c1n[nH]c(Nc3ccc(F)c([N+](=O)[O-])c3)c1C2 [Compound 276, (6,7-Dimethoxy-2,4-dihydro-indeno[1,2-c]pyrazol-3-yl)-(4-fluoro-3-nitro-phenyl)-amine]
11 | 88 | 1360 | COc1ccc(Nc2[nH]nc3c2Cc2cc(OC)c(OC)cc2-3)cc1Cl [Compound 277, (3-Chloro-4-methoxy-phenyl)-(6,7-dimethoxy-2,4-dihydro-indeno[1,2-c]pyrazol-3-yl)-amine]
12 | 97 | 29.5 | COc1cc2c(cc1OC)-c1n[nH]c(Nc3cccc(C(C)O)c3)c1C2 (stereo not shown) [Compound 278, 1-[3-(6,7-Dimethoxy-2,4-dihydro-indeno[1,2-c]pyrazol-3-ylamino)-phenyl]-ethanol]
13 | 19.5 | 203000 | COc1cc2c(cc1OC)-c1n[nH]c(Nc3cc(C(C)(C)C)cc(C(C)(C)C)c3)c1C2 [Compound 279, (3,5-Di-tert-butyl-phenyl)-(6,7-dimethoxy-2,4-dihydro-indeno[1,2-c]pyrazol-3-yl)-amine]
14 | 18.5 | 2.78 | COCCCOc1cc2c(cc1OCCCOC)-c1n[nH]c(Nc3cccc(Cl)c3)c1C2 [Compound 285, [6,7-Bis-(3-methoxy-propoxy)-2,4-dihydroindeno[1,2-c]pyrazol-3-yl]-(3-chloro-phenyl)-amine]
15 | 88.5 | 219 | COc1ccc(Nc2[nH]nc3c2Cc2cc(F)ccc2-3)cc1Cl [Compound 288, (3-Chloro-4-methoxy-phenyl)-(6-fluoro-2,4-dihydro-indeno[1,2-c]pyrazol-3-yl)-amine]
16 | 87.5 | 61.4 | Fc1ccc2c(c1)Cc1c-2n[nH]c1Nc1ccc2[nH]ccc2c1 [Compound 290, (6-Fluoro-2,4-dihydro-indeno[1,2-c]pyrazol-3-yl)-(1H-indol-5-yl)-amine]
17 | 95 | 205 | COc1cc2c(cc1OCc1ccccc1)Cc1c-2n[nH]c1Nc1cccc(F)c1 [Compound 291, (6-Benzyloxy-7-methoxy-2,4-dihydro-indeno[1,2-c]pyrazol-3-yl)-(3-fluoro-phenyl)-amine]
18 | 96.5 | 69.2 | CCOc1cc2c(cc1OCC)-c1n[nH]c(NCc3ccccc3F)c1C2 [Compound 293, (6,7-Diethoxy-2,4-dihydro-indeno[1,2-c]pyrazol-3-yl)-(2-fluoro-benzyl)-amine]
19 | 81 | 264 | CCOc1cc2c(cc1OCC)-c1n[nH]c(NCc3cccc(F)c3)c1C2 [Compound 294, (6,7-Diethoxy-2,4-dihydro-indeno[1,2-c]pyrazol-3-yl)-(3-fluoro-benzyl)-amine]
20 | 81.5 | 1.65 | CCOc1cc2c(cc1OCC)-c1n[nH]c(NCc3c(Cl)cccc3Cl)c1C2 [Compound 295, (2,6-Dichloro-benzyl)-(6,7-diethoxy-2,4-dihydro-indeno[1,2-c]pyrazol-3-yl)-amine]
21 | 72.5 | 1820 | CCOc1cc2c(cc1OCC)-c1n[nH]c(NCc3ccccc3OC)c1C2 [Compound 296, (6,7-Diethoxy-2,4-dihydro-indeno[1,2-c]pyrazol-3-yl)-(2-methoxy-benzyl)-amine]
22 | 90.5 | 275 | COc1cc2c(cc1OC)-c1n[nH]c(Nc3cccc(C(=O)NCCO)c3)c1C2 [Compound 297, 3-(6,7-Dimethoxy-2,4-dihydro-indeno[1,2-c]pyrazol-3-ylamino)-N-(2-hydroxy-ethyl)-benzamide]
23 | 92 | 408 | COc1cc2c(cc1OC)-c1n[nH]c(Nc3cccc(C(=O)NCCCN4CCCC4)c3)c1C2 [Compound 298, 3-(6,7-Dimethoxy-2,4-dihydro-indeno[1,2-c]pyrazol-3-ylamino)-N-(3-pyrrolidin-1-yl-propyl)-benzamide]
24 | 40 |  | COc1cc2c(cc1OC)C(c1ccccc1)c1c-2n[nH]c1Nc1ccccc1 (stereo not shown) [Compound 300, (6,7-Dimethoxy-4-phenyl-2,4-dihydro-indeno[1,2-c]pyrazol-3-yl)-phenyl-amine]
25 | 72 |  | CCOc1cc2c(cc1OCC)-c1n[nH]c(NCc3ccccc3OC(F)(F)F)c1C2 [Compound 301, (6,7-Diethoxy-2,4-dihydro-indeno[1,2-c]pyrazol-3-yl)-(2-trifluoromethoxy-benzyl)-amine]
26 | 47 |  | COc1cc2c(cc1OC)C(c1ccccc1)c1c-2n[nH]c1Nc1cccc(F)c1 (stereo not shown) [Compound 302, (6,7-Dimethoxy-4-phenyl-2,4-dihydro-indeno[1,2-c]pyrazol-3-yl)-(3-fluoro-phenyl)-amine]
27 | 50 | 9340 | CC(C)(C)c1cc(Nc2[nH]nc3c2Cc2cc(F)ccc2-3)cc(C(C)(C)C)c1 [Compound 303, (3,5-Di-tert-butyl-phenyl)-(6-fluoro-2,4-dihydro-indeno[1,2-c]pyrazol-3-yl)-amine]
